Key:
Assay type in all cases: cell-based
[1] = biological target: Her2 exon 20 YVMA insertion (A775_G776ins YVMA) (Homo sapiens (Human), UniProt P04626, INS775YVMA); test: Ba/F3-Her2 Exon20 YVMA cell anti-proliferative assay (CellTiter 96 MTS, 72 h); conditions: Ba/F3-Her2 Exon20 YVMA cells
Text: Ba/F3 cells expressing Her2 Exon20 YVMA insertions (named Ba/F3-Her2 Exon20 YVMA) can proliferate in the absence of IL-3.

[2] = biological target: human EGFR exon 20 insertion ASV (V769_D770insASV) (Homo sapiens (Human), UniProt P00533, INS769ASV); test: Ba/F3-EGFR-Exon20-ASV cell anti-proliferative assay (CellTiter 96 MTS, 72 h); conditions: Ba/F3-EGFR-Exon20-ASV cells;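 further: Ba/F3 cells bearing the EGFR exon 20 ASV insertion, a line able to proliferate without IL-3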
Chain of human EGFR exon 20 insertion ASV (V769_D770insASV) (P00533 other isoform, or with tags, fused parts or gaps ins ASV behind 769): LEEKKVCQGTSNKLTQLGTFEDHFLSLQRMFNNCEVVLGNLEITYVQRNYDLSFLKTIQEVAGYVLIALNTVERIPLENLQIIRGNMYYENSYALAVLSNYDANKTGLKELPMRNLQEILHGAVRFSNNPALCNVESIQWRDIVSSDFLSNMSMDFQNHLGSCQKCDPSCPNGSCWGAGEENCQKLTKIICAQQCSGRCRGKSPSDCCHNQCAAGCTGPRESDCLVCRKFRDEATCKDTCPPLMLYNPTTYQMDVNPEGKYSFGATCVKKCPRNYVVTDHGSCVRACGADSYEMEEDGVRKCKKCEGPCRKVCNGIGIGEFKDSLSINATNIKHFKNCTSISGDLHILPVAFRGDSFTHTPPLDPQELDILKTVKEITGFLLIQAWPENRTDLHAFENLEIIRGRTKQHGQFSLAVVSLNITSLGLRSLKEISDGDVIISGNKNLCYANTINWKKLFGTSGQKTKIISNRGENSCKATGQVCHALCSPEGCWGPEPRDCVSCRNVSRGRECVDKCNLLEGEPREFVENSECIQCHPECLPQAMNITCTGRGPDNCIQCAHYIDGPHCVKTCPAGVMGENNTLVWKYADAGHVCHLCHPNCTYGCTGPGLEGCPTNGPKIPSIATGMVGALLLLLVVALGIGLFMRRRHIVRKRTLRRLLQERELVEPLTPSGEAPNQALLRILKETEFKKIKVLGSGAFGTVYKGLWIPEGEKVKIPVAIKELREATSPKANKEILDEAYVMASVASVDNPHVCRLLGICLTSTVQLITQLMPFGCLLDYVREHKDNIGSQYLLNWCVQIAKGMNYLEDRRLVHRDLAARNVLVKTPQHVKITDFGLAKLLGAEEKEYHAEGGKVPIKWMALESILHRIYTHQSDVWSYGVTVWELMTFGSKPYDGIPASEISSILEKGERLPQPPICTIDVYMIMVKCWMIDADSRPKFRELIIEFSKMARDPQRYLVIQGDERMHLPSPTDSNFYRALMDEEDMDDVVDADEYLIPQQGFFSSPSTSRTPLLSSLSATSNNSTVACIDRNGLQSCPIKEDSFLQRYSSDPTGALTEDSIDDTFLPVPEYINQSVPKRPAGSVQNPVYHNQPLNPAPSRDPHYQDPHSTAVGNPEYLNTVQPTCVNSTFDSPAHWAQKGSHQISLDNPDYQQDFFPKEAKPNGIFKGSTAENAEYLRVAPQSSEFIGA
Description: (§1) Ba/F3 cells expressing EGFR exon 20 insertions (named Ba/F3-EGFR-Exon20-NPG or Ba/F3-EGFR-Exon20-ASV) can proliferate in the absence of IL-3. The anti-proliferative activity of compounds were determined as follows: BaF3-EGFR-Exon20 cells (NPG or ASV) seeded in 96 well plates (2500 cells/well) were treated with test compound (dissolved in DMSO) at a series of concentrations (4-fold dilution, top concentration: 10,000 nM). The plates were incubated for 72 h in a 37° C. incubator with 5% CO2, and the number of viable cells in each well were measured indirectly by CellTiter 96® Aqueous One Solution Cell Proliferation Assay (Promega) This assay is a colorimetric method for determining the number of viable cells through measurement of their metabolic activity by detection of enzymatic conversion of tetrazolium salts into blue formazan derivatives. Reagent (20 μL) was added into each well, and the plates were returned to the incubator for 2 h. The absorbance in each well was then measured at 490 nm using an Envision plate reader (Perkin Elmer).

[3] = biological target: human EGFR L858R and T790M double mutation (LT) (Homo sapiens (Human), UniProt P00533, L858R/T790M); test: Ba/F3-EGFR L858R/T790M cell anti-proliferative assay (CellTiter 96 MTS, 72 h); conditions: Ba/F3-EGFR L858R/T790M cells; for IC50: read-out: EGFR exon 21 L858R and T790M mutation IC50;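 on all read-outs here: Ba/F3 cells carrying the EGFR L858R/T790M double mutant are able to grow without IL-3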
Chain of human EGFR L858R and T790M double mutation (LT) (P00533 25-1210 T790M/L858R): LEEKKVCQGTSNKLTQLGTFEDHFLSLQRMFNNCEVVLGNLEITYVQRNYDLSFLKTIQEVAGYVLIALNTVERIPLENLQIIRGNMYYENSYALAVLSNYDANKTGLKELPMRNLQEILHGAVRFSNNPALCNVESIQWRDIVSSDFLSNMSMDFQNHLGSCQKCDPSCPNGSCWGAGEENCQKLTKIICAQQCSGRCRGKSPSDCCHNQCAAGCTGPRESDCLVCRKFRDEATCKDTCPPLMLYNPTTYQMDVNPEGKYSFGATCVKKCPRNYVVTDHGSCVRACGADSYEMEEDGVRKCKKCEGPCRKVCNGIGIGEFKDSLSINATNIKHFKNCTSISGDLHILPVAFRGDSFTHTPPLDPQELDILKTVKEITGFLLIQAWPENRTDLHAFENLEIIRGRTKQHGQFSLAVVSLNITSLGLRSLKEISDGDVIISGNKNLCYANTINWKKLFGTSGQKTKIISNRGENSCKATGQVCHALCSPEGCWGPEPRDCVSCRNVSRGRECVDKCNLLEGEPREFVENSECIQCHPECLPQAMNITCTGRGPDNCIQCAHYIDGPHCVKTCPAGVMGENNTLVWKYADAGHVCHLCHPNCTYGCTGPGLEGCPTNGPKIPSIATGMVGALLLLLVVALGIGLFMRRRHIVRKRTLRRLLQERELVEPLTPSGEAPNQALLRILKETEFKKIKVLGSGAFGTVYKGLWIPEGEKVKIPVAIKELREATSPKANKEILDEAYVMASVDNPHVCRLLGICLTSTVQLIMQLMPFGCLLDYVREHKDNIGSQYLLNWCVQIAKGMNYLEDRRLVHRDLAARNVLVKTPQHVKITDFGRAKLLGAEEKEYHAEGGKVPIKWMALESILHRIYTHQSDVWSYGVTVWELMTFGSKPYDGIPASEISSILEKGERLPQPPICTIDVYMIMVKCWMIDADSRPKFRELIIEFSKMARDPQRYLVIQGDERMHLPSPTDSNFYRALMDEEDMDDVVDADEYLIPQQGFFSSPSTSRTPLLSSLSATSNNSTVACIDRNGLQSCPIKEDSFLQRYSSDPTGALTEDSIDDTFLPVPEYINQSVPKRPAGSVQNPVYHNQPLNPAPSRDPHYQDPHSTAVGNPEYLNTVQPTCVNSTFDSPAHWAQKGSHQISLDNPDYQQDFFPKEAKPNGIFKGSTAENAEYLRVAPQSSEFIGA
Description: An expression vector, pLVX-IRES puro (Clontech) coding for human EGFR L858R and T790M double mutation, was transfected into HEK293 cells by the Trans-Lentiviral ORF Packaging System (Thermo Scientific), to produce virus encoding EGFR L858R and T790M double mutations. […] Ba/F3 cells expressing EGFR L858R and T790M double mutation (named Ba/F3-EGFR L858R/T790M) can proliferate in the absence of IL-3. The anti-proliferative activity of compounds was determined as follows: BaF3-EGFR L858R/T790M cells seeded in 96 well plates (2500 cells/well) were treated with test compound (dissolved in DMSO) at a series of concentrations (4-fold dilution, top concentration: 10,000 nM). The plates were incubated for 72 h in a 37° C. incubator with 5% CO2, and the number of viable cells in each well were measured indirectly by CellTiter 96® Aqueous One Solution Cell Proliferation Assay (Promega; this assay is a colorimetric method for determining the number of viable cells through measurement of their metabolic activity by detection of enzymatic conversion of tetrazolium salts into blue formazan derivatives). Reagent (20 μL) was added into each well, and the plates were returned to the incubator for 2 h. The absorbance in each well was then measured at 490 nm using an Envision plate reader (Perkin Elmer).

[4] = biological target: human EGFR E746-A750 deletion and T790M Mutation (DT) (Homo sapiens (Human), UniProt P00533, DEL746-750/T790M); test: Ba/F3-EGFR-Del/T790M cell anti-proliferative assay (CellTiter 96 MTS, 72 h); conditions: Ba/F3-EGFR-Del/T790M cells; for IC50: read-out: EGFR exon 19 deletion and T790M mutation IC50
[5] = biological target: human EGFR exon 20 insertion NPG (H773_V774insNPG) (Homo sapiens, UniProt P00533, INS773NPG, cells depend on it); test: Ba/F3-EGFR-Exon20-NPG cell anti-proliferative assay (CellTiter 96 MTS, 72 h); conditions: read-out: EGFR exon 20 NPG insertion IC50
Chain of human EGFR exon 20 insertion NPG (H773_V774insNPG) (P00533 with tags, fused parts or gaps INS773NPG limits assumed): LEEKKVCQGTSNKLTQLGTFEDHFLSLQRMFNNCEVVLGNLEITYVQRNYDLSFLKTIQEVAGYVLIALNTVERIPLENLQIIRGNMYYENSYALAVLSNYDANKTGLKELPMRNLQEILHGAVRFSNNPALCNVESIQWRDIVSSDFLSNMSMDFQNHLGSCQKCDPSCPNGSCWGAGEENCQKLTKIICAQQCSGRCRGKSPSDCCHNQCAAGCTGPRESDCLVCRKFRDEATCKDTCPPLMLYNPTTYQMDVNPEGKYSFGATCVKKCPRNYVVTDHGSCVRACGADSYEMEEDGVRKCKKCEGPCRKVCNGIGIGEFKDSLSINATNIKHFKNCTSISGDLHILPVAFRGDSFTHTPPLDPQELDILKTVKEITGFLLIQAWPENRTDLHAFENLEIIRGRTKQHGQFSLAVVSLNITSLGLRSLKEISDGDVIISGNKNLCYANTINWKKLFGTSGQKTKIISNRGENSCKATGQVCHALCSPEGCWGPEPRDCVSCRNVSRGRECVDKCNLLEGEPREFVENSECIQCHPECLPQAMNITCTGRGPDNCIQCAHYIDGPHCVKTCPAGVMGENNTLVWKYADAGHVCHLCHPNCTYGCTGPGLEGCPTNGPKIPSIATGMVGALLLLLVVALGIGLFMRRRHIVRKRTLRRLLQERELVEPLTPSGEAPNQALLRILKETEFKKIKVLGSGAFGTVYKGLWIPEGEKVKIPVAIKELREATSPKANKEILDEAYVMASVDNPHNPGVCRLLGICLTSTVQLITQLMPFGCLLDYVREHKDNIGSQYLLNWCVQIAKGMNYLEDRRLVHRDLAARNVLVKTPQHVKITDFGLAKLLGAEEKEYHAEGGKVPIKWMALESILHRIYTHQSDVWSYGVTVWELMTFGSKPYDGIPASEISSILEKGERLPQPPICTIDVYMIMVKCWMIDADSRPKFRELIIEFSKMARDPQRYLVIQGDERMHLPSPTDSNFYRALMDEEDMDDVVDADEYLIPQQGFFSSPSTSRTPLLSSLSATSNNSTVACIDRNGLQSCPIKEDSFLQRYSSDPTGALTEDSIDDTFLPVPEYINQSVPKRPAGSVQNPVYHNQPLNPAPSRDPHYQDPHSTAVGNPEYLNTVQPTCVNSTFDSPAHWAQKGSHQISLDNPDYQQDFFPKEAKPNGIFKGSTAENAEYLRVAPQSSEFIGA
Description: as §1

Chain of Her2 exon 20 YVMA insertion (A775_G776ins YVMA) (P04626 other isoform, or with tags, fused parts or gaps ins YVMA behind 775): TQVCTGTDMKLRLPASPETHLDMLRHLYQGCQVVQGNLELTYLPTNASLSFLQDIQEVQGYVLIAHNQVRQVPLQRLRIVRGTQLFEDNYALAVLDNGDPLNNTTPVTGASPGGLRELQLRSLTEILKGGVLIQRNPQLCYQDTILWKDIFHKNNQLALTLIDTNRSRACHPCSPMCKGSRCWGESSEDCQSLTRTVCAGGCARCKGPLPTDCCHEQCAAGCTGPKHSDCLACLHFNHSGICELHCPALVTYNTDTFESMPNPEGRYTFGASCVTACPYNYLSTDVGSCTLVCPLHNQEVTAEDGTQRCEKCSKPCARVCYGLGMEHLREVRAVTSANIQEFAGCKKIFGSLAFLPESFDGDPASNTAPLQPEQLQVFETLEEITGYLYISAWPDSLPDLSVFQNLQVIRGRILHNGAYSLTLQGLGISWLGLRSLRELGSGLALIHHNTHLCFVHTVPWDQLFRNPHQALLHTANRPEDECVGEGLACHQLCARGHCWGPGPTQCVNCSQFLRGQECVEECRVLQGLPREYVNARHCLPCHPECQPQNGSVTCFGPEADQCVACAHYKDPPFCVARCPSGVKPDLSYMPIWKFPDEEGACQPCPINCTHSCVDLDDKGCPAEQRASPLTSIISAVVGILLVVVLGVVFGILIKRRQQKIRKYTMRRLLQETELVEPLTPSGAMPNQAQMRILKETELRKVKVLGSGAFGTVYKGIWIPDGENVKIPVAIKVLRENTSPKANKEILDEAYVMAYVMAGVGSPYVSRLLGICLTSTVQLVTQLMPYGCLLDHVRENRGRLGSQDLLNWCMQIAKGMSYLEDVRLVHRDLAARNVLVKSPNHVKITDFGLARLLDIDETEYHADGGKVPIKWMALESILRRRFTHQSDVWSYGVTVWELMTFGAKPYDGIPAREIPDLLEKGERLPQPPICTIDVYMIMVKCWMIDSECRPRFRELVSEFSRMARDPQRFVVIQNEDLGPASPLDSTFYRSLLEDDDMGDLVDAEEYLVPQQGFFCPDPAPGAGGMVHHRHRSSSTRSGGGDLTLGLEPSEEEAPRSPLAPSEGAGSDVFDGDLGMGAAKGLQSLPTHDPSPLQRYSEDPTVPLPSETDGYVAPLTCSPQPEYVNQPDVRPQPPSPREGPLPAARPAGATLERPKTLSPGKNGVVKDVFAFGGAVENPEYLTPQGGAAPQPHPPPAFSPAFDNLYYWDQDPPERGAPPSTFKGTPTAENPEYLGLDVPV

Structure (SMILES)	IC50 [1]	IC50 [2]	IC50 [3]	IC50 [4]	EGFR exon 21 L858R and T790M mutation IC50 [3]	EGFR exon 19 deletion and T790M mutation IC50 [4]	IC50 [5]
C=CC(=O)Nc1cc(Nc2nccc(-c3c(C#N)n(C)c4ccccc34)n2)c(OC)cc1N(C)CCN(C)C [Example 88, N-(5-((4-(2-cyano-1-methyl-1H-indol-3-yl)pyrimidin-2-yl)amino)-2-((2-(dimethylamino)ethyl)(methyl)amino)-4-methoxyphenyl)acrylamide]	100 to 500 nM	< 100 nM	< 100 nM	< 100 nM			
C=CC(=O)Nc1cc(Nc2nccc(-c3c(C(=O)NCCOC)n(C)c4ccccc34)n2)c(OC)cc1N(C)CCN(C)C [Example 93, 3-(2-((5-acrylamido-4-((2-(dimethylamino)ethyl)(methyl)amino)-2-methoxyphenyl)amino)pyrimidin-4-yl)-N-(2-methoxyethyl)-1-methyl-1H-indole-2-carboxamide]	> 1000 nM	500 to 1000 nM			C (Group C compounds have an IC50 value for the indicated mutant between greater than about 500 to about 1 μM)	B (Group B compounds have an IC50 value for the indicated mutant between about 100 to about 500 nM)	
C=CC(=O)Nc1cc(Nc2nccc(-c3c(C(=O)NC)n(C)c4ccccc34)n2)c(OC)cc1N(C)CCN(C)C [Example 91, 3-(2-((5-acrylamido-4-((2-(dimethylamino)ethyl)(methyl)amino)-2-methoxyphenyl)amino)pyrimidin-4-yl)-N,1-dimethyl-1H-indole-2-carboxamide]	500 to 1000 nM	100 to 500 nM		< 100 nM	B (Group B compounds have an IC50 value for the indicated mutant between about 100 to about 500 nM)		
C=CC(=O)Nc1cc(Nc2nccc(-c3cn(C)c4cc(C#N)ccc34)n2)c(OC)cc1N(C)CCN(C)C [Example 89, N-(5-((4-(6-cyano-1-methyl-1H-indol-3-yl)pyrimidin-2-yl)amino)-2-((2-(dimethylamino)ethyl)(methyl)amino)-4-methoxyphenyl)acrylamide]	100 to 500 nM	< 100 nM	< 100 nM	< 100 nM			
C=CC(=O)Nc1cc(Nc2nccc(-c3c(C(=O)N(C)C)n(C)c4ccccc34)n2)c(OC)cc1N(C)CCN(C)C [Example 92, 3-(2-((5-acrylamido-4-((2-(dimethylamino)ethyl)(methyl)amino)-2-methoxyphenyl)amino)pyrimidin-4-yl)-N,N,1-trimethyl-1H-indole-2-carboxamide]	100 to 500 nM	< 100 nM	< 100 nM	< 100 nM			
C=CC(=O)Nc1cc(Nc2ncc(CC)c(-c3cn(CC(N)=O)c4ccccc34)n2)c(OC)cc1N(C)CCN(C)C [Example 71, N-(5-((4-(1-(2-amino-2-oxoethyl)-1H-indol-3-yl)-5-ethylpyrimidin-2-yl)amino)-2-((2-(dimethylamino)ethyl)(methyl)amino)-4-methoxyphenyl)acrylamide]	100 to 500 nM	< 100 nM	< 100 nM	< 100 nM			
C=CC(=O)Nc1cc(Nc2nccc(-c3cn(CC(N)=O)c4ccccc34)n2)c(OC)cc1N(C)CCN(C)C [Example 70, N-(5-((4-(1-(2-amino-2-oxoethyl)-1H-indol-3-yl)pyrimidin-2-yl)amino)-2-((2-(dimethylamino)ethyl)(methyl)amino)-4-methoxyphenyl)acrylamide]	100 to 500 nM	< 100 nM	< 100 nM	< 100 nM			
C=CC(=O)Nc1cc(Nc2nccc(-c3cn(C)c4cc(-c5cnn(C)c5)ccc34)n2)c(OC)cc1N(C)CCN(C)C [Example 95, N-(2-((2-(dimethylamino)ethyl)(methyl)amino)-4-methoxy-5-((4-(1-methyl-6-(1-methyl-1H-pyrazol-4-yl)-1H-indol-3-yl)pyrimidin-2-yl)amino)phenyl)acrylamide]	100 to 500 nM	< 100 nM	< 100 nM	< 100 nM			
C=CC(=O)Nc1cc(Nc2nccc(-c3cn(C)c4cc(C(=O)OC(C)C)ccc34)n2)c(OC)cc1N(C)CCN(C)C [Example 84, isopropyl 3-(2-((5-acrylamido-4-((2-(dimethylamino)ethyl)(methyl)amino)-2-methoxyphenyl)amino)pyrimidin-4-yl)-1-methyl-1H-indole-6-carboxylate]	500 to 1000 nM	500 to 1000 nM	< 100 nM	< 100 nM			
C=CC(=O)Nc1cc(Nc2ncc(NC(=O)NC)c(-c3cn(C)c4ccccc34)n2)c(OC)cc1N(C)CCN(C)C [Example 99, N-(2-((2-(dimethylamino)ethyl)(methyl)amino)-4-methoxy-5-((4-(1-methyl-1H-indol-3-yl)-5-(3-methylureido)pyrimidin-2-yl)amino)phenyl)acrylamide]	> 1000 nM	500 to 1000 nM	> 1000 nM	> 1000 nM			
C=CC(=O)Nc1cc(Nc2nccc(-c3c(C(N)=O)n(C)c4ccccc34)n2)c(OC)cc1N(C)CCN(C)C [Example 90, 3-(2-((5-acrylamido-4-((2-(dimethylamino)ethyl)(methyl)amino)-2-methoxyphenyl)amino)pyrimidin-4-yl)-1-methyl-1H-indole-2-carboxamide]	500 to 1000 nM	100 to 500 nM	< 100 nM	< 100 nM			
C=CC(=O)Nc1cc(Nc2ncc(P(C)(C)=O)c(-c3cn(C)c4ccccc34)n2)c(OC)cc1N(C)CCN(C)C [Example 96, N-(2-((2-(dimethylamino)ethyl)(methyl)amino)-5-((5-(dimethylphosphoryl)-4-(1-methyl-1H-indol-3-yl)pyrimidin-2-yl)amino)-4-methoxyphenyl)acrylamide]	> 1000 nM	> 1000 nM			B (Group B compounds have an IC50 value for the indicated mutant between about 100 to about 500 nM)	B (Group B compounds have an IC50 value for the indicated mutant between about 100 to about 500 nM)	
C=CC(=O)Nc1cc(Nc2nccc(-c3cn(C)c4c(C(=O)OC(C)C)cccc34)n2)c(OC)cc1N(C)CCN(C)C [Example 85, isopropyl 3-(2-((5-acrylamido-4-((2-(dimethylamino)ethyl)(methyl)amino)-2-methoxyphenyl)amino)pyrimidin-4-yl)-1-methyl-1H-indole-7-carboxylate]	100 to 500 nM	100 to 500 nM	< 100 nM	< 100 nM			
C=CC(=O)Nc1cc(Nc2ncc(C(=O)OC)c(-c3cn(C)c4ccccc34)n2)c(OC)cc1CCCN(C)C [Example 69, methyl 2-((5-acrylamido-4-(3-(dimethylamino)propyl)-2-methoxyphenyl)amino)-4-(1-methyl-1H-indol-3-yl)pyrimidine-5-carboxylate]	500 to 1000 nM	100 to 500 nM		< 100 nM			< 100 nM
C=CC(=O)Nc1cc(Nc2ncc(C(=O)OC(C)C)c(-n3ccc4ccccc43)n2)c(OC)cc1N(C)C[C@H]1CCCN1C [Example 61, isopropyl (R)-2-((5-acrylamido-2-methoxy-4-(methyl((1-methylpyrrolidin-2-yl)methyl)amino)phenyl)amino)-4-(1H-indol-1-yl)pyrimidine-5-carboxylate]	100 to 500 nM	< 100 nM		< 100 nM			< 100 nM
C=CC(=O)Nc1cc(Nc2ncc(Cl)c(-c3cnn4ccccc34)n2)c(OC)cc1OCCN(C)C [Example 51, N-(5-((5-chloro-4-(pyrazolo[1,5-a]pyridin-3-yl)pyrimidin-2-yl)amino)-2-(2-(dimethylamino)ethoxy)-4-methoxyphenyl)acrylamide]	100 to 500 nM	100 to 500 nM		< 100 nM			< 100 nM
C=CC(=O)Nc1cc(Nc2ncc(C(=O)OC(C)C)c(-c3coc4ccccc34)n2)c(OC)cc1N(C)C[C@H]1CCCN1C [Example 62, isopropyl (R)-2-((5-acrylamido-2-methoxy-4-(methyl((1-methylpyrrolidin-2-yl)methyl)amino)phenyl)amino)-4-(benzofuran-3-yl)pyrimidine-5-carboxylate]	100 to 500 nM	< 100 nM		< 100 nM			< 100 nM
C=CC(=O)Nc1ccc(OC)c(Nc2ncc(Cl)c(-c3cn(C)c4cc(OCCN5CCN(C)CC5)ccc34)n2)c1 [Example 18, N-(3-((5-chloro-4-(1-methyl-6-(2-(4-methylpiperazin-1-yl)ethoxy)-1H-indol-3-yl)pyrimidin-2-yl)amino)-4-methoxyphenyl)acrylamide]	> 1000 nM	> 1000 nM		< 100 nM			100 to 500 nM
C=CC(=O)Nc1cc(Nc2ncc(C(=O)OC)c(-c3cn(N(C)C)c4ccccc34)n2)c(OC)cc1N(C)CCN(C)C [Example 76, methyl 2-((5-acrylamido-4-((2-(dimethylamino)ethyl)(methyl)amino)-2-methoxyphenyl)amino)-4-(1-(dimethylamino)-1H-indol-3-yl)pyrimidine-5-carboxylate]	< 100 nM	< 100 nM		< 100 nM			< 100 nM
